Test results: US7223533B2, “Cell surface proteins and use thereof as indicators of activation of cellular signal transduction pathways” (priority 1999, dated 2007)

Assays:
[1] = biological target: T1, ML1a receptor (Homo sapiens, UniProt P48039); assay: ELISA-like assay of endogenous Aga2 protein with Sag1p21-352; type: cell-based; settings: yeast cells containing the ML1a receptor, peroxidase assay
T1 construct: expressed in transfected cells; host or cells: S. cerevisiae (CY17353 in A11/A12; aga1 mutant CY19890 in A13), plasmid Cp2695 (PGKp-ML1aR)
Method: (§1) Extraction of the endogenous Aga2 protein was effected with DTT, as before. Aliquots (25 microliters) of extracts were diluted with 75 microliters of 100 mM sodium bicarbonate, pH 9.5 and the resulting samples were incubated in 96-well polystyrene plates at 4° C. overnight.
(§2) After washing the plates three times with PBS, pH 6.5, supplemented with 0.1% Tween 20, samples were blocked with the same buffer containing 3% bovine serum albumin at 37° C. for 1 hour. After blocking, the plates were incubated subsequently with EndoH-treated Sag1p^21-352 solution (0.5 mg/ml), 1000-fold diluted anti-Xpress antibodies (Invitrogen) and 5000-fold diluted sheep anti-mouse IgG conjugated with horseradish peroxidase (Amersham Pharmacia Biotech). Both Sag1p^21-352 and antibodies were dissolved in PBS, pH 6.5 supplemented with 3% BSA. Each incubation was conducted at room temperature for 1 hr and was followed by three washes with PBS, pH 6.5, 0.1% Tween 20. Finally, the peroxidase activities in each well were determined using tetramethyl benzidine as a substrate. If the Aga2 protein were present in the plate, the Sag1p^21-352 should bind to it, the anti-Xpress antibody binds to the Sag1p^21-352 fusion protein, and the sheep anti-mouse IgG antibodies bind specifically to the anti-Xpress antibody.

[2] = biological target: T2, human melatonin 1a receptor (Homo sapiens, UniProt P48039); assay: Western blot of DTT-extracted Aga2-HA; type: cell-based; settings: increasing concentrations of ligand vs absence
T2 construct: expressed in transfected cells; host or cells: S. cerevisiae (CY17353 in A11/A12; aga1 mutant CY19890 in A13), plasmid Cp2695 (PGKp-ML1aR)
Method: (§3) The cells (TOD600=1.5) were pelleted, washed with ice-cold 0.15 M sodium chloride, resuspended in 50 microliters of 25 mM Tris-HCl, pH 8.5, supplemented with 10 mM dithiothreitol (DTI) and incubated for1 hour at 4° C. This DTT incubation step reduced the disulfide bonds between the Aga1 and Aga2 proteins, thereby releasing Aga2 into the extracellular medium. After centrifugation, 50 microliter aliquots of the supernatants were subjected to Western blot analysis. Immunoreactive bands corresponding to Aga2-HA were visualized using HA.11 antibodies (BAbCo) as primary antibodies, sheep anti-mouse IgG conjugated with horseradish peroxidase (Amarsham Pharmacia Biotech) as secondary antibodies, and peroxidase substrate (e.g., tetramethyl benzidine (Pierce)) for a visual readout.

[3] = biological target: T3, human melatonin 1a receptor (ML1aR) (Homo sapiens, UniProt P48039); assay: ELISA of DTT-extracted cell surface Aga2-HA induction (HA.11 antibody, HRP readout); type: cell-based; settings: for HRP activity: yeast cells, Aga2-HA
T3 construct: expressed in transfected cells; host or cells: S. cerevisiae (CY17353 in A11/A12; aga1 mutant CY19890 in A13), plasmid Cp2695 (PGKp-ML1aR)
Method: as §3
(§4) Western blot analysis is a qualitative, rather than quantitative methodology. To determine the induction of expression of the Aga2 protein quantitatively, an ELISA strategy was utilized. Cells were cultured, treated, and the Aga2 protein extracted from the cell surface by DTT incubation, as above. Aliquots of these DTT extracts (50 microliters in the case of cells utilizing the Ste2 receptor and 5 microliters in other cases) were diluted to 100 microliters with 100 mM sodium bicarbonate, pH 9.5. Samples were incubated in 96-well polystyrene plates at 4 degrees C overnight. Plates were washed three times with PBS, pH 7.2 supplemented with 0.1% Tween 20 and blocked with the same buffer containing 3% bovine serum albumin at 37° C. for 1 hr. After blocking, the plates were incubated subsequently with 5000-fold diluted HA.11 antibodies (BAbCo) and 5000-fold diluted sheep anti-mouse IgG conjugated with horseradish peroxidase (Amersham Pharmacia Biotech). Each incubation was conducted at room temperature for 1 hr and was followed by three washes with PBS, pH 7.2, 0.1% Tween 20. The peroxidase activities in each well were determined using tetramethyl benzidine as a substrate.

[4] = biological target: T4, ML1aR (Homo sapiens, UniProt P48039); assay: Scintillation proximity assay of secreted HA-tagged Aga2p (aga1 mutant strain CY19890); type: cell-based; settings: 1 μM melatonin
T4 construct: expressed in transfected cells; host or cells: S. cerevisiae (CY17353 in A11/A12; aga1 mutant CY19890 in A13), plasmid Cp2695 (PGKp-ML1aR)
Method: A particular embodiment of these types of cell-free Aga2 assays is the scintillation proximity assay. In this technique, the extracellular medium potentially containing the Aga2 protein is incubated with antibodies specific for Aga2. These antibodies are also biotinylated, and thus the antibody-Aga2 complex can be tethered to the surface of SPA beads coated with streptavidin (and also containing scintillant). Sag1p^21-352 is radiolabeled with, e.g., ^125I or ^3H, and is incubated with the Aga2-loaded beads. Binding of the fusion protein to the immobilized Aga2 protein brings the radiolabel in proximity to the scintillant contained within the beads, resulting in the emission of light. This emission can be readily quantitated using a scintillation counter. The presence of light indicates the presence of the Aga2 protein, and thus that the pheromone response pathway was activated in the yeast cells by the test compound via the G protein coupled receptor.
The following experiment was conducted in order to test the utility of the scintillation proximity assay for the detection of Aga2p induction mediated by heterologous receptors in yeast. […] One hundred microliter aliquots of culture media were placed into a 96-well plate and the following solutions were added to each well: 20 μl of 0.5 M sodium phosphate, pH 6.0, 1.5 M sodium chloride, 1% Tween 20, 10% BSA; 0.25 μg of SPA beads (Amersham) coated with biotinylated HA.11 antibodies (BAbCo) in 25 μl of PBS (20 mM sodium phosphate, pH 7.2, 0.15 M sodium chloride) and 25 μl of PBS containing [1^25,]-Sag1p^21-352 (250,000 cpm). SPA beads were prepared as follows. Fifty milligrams of streptavidin-coated yttrium silicate beads were incubated in 2 ml of PBS containing 1% BSA, 0.1% Tween 20 and 0.5 mg biotinylated HA. 11 antibodies for 4 hr at room temperature. The beads were washed three times with PBS and resuspended in 1 ml of the same buffer. Sag1p^21-352 was iodinated according to standard protocols using lactoperoxidase.
Light emission was quantitated using a scintillation counter after incubation of the plate at room temperature for 1 hr, 2 hr and 6 hr.

[5] = biological target: T5, Ste2p (Saccharomyces cerevisiae, UniProt D6VTK4); assay: Western blot of DTT-extracted Aga2-HA; type: cell-based, S. cerevisiae; settings: increasing concentrations of ligand vs absence
T5 construct: Yeast cells coexpressing either the endogenous yeast receptor Ste2p; endogenous in cells; host or cells: S. cerevisiae MATa cells (strain CY1892 in the Sag1p-based ELISA)
T5 sequence (D6VTK4 1-431): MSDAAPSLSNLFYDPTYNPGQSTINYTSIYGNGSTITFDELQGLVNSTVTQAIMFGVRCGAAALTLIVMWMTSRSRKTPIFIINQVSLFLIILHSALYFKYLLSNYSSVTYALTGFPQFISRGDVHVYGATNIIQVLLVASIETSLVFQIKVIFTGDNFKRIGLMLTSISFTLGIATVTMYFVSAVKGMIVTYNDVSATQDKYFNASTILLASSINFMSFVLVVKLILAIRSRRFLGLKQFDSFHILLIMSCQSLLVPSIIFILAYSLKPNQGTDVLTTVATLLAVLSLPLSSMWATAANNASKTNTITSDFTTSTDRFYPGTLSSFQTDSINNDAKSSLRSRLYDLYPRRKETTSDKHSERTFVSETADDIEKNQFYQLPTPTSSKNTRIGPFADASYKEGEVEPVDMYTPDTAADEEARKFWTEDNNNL
Method: as §3

[6] = biological target: T6, Ste2 receptor (Saccharomyces cerevisiae, UniProt D6VTK4); assay: ELISA-like assay of endogenous Aga2 protein with Sag1p21-352, anti-Xpress antibodies and HRP conjugate; type: cell-based, S. cerevisiae; settings: yeast cells containing the Ste2 receptor, peroxidase assay
T6 construct: Yeast cells coexpressing either the endogenous yeast receptor Ste2p; endogenous in cells; host or cells: S. cerevisiae MATa cells (strain CY1892 in the Sag1p-based ELISA)
T6 sequence (D6VTK4 1-431): T5 sequence (D6VTK4 1-431)
Method: as §1, §2

[7] = biological target: T5, Ste2p; assay: ELISA of DTT-extracted cell surface Aga2-HA induction (HA.11 antibody, HRP readout); type: cell-based, S. cerevisiae; settings: for HRP activity: yeast cells, Aga2-HA
Method: as §3, §4

[8] = tested on: intact MATa cells (strain CY1892); assay: Binding of Sag1p21-352 to yeast cell surface (Western blot of SDS extracts); design: species or system S. cerevisiae; settings: cells with or without 100 nM α-factor; 30° C., 30 min
Method: To ensure that this truncation of the Sag1 protein retained full binding activity to α-agglutinin, and more specifically, the Aga2 protein, binding assays were performed. […] The cells (TOD600=1) were pelleted and resuspended in 0.15 ml of the same media supplemented with varying concentrations of Sag1p^21-352. After incubation at 30° C. for 30 min, the cells were washed three times with the same media and incubated in the presence of 2% SDS for 5 min to release Sag1p^21-352 bound to the cell surface. The SDS extracts were subjected to Western blot analysis. The immunoreactive bands corresponding to Sag1p^21-352 were visualized using anti-Xpress antibodies (Invitrogen), as above.

T3 sequence (P48039 whole entry): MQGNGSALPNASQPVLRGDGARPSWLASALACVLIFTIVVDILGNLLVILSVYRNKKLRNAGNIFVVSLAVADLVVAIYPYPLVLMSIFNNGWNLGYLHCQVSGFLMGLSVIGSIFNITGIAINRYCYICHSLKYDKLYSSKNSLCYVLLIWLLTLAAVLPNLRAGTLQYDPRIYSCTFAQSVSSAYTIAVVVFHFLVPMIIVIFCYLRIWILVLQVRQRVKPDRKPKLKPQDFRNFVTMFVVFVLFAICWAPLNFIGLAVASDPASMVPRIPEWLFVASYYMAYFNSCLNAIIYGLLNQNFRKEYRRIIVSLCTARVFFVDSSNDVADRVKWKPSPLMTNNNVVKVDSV
T4 sequence (P48039 whole entry): as above
T1 sequence (P48039 whole entry): as above
T2 sequence (P48039 whole entry): as above

Molecule: COc1ccc2[nH]cc(CCNC(C)=O)c2c1 [melatonin]
- induction of the Aga2 protein [1]: dose-dependent response
- expression level of the Aga2 protein [2]: substantial increase
- HRP activity ([3]; [Ligand] 1 × 10^−6 M): 1.112
- HRP activity ([3]; [Ligand] 1.13 × 10^−7 M): 0.829
- HRP activity ([3]; [Ligand] 1.95 × 10^−9 M): 0.278
- HRP activity ([3]; [Ligand] 3.13 × 10^−8 M): 0.767
- HRP activity ([3]; [Ligand] 4.88 × 10^−10 M): 0.154
- HRP activity ([3]; [Ligand] 5 × 10^−7 M): 1.216
- HRP activity ([3]; [Ligand] 7.81 × 10^−9 M): 0.427
- Induction factor ([3]; cell surface Aga2-HA, ML1aR): 19
- increase in the levels of HA-tagged Aga2p in the culture media ([4]; scintillation proximity assay): approximately 3 fold
- Induction factor ([4]; incubation time 1 hr): 2.5
- Induction factor ([4]; incubation time 2 hr): 2.6
- Induction factor ([4]; incubation time 6 hr): 3.1

Molecule: α-factor
- expression level of the Aga2 protein [5]: substantial increase
- induction of the Aga2 protein [6]: dose-dependent response
- HRP activity ([7]; [Ligand] 1.13 × 10^−7 M): 2.163
- HRP activity ([7]; [Ligand] 2 × 10^−6 M): 2.332
- HRP activity ([7]; [Ligand] 3.13 × 10^−8 M): 0.548
- HRP activity ([7]; [Ligand] 5 × 10^−7 M): 2.498
- HRP activity ([7]; [Ligand] 7.81 × 10^−9 M): 0.280
- Induction factor ([7]; cell surface Aga2-HA, Ste2p): 15

B1: Sag1p^21-352: N-terminal portion of Sag1p (α-agglutinin, residues 21–352) bearing a polyhistidine tag, Xpress epitope and enterokinase cleavage site (protein)
chain: NINDITFSNLEITPLTANKQPDQGWTATFDFSIADASSIREGDEFTLSMPHVYRIKLLNSSQTATISLADGTEAFKCYVSQQAAYLYENTTFTCTAQNDLSSYNTIDGSITFSLNFSDGGSSYEYELENAKFFKSGPMLVKLGNQMSDVVNFDPAAFTENVFHSGRSTGYGSFESYHLGMYCPNGYFLGGTEKIDYDSSNNNVDLDCSSVQVYSSNDFNDWWFPQSYNDTNADVTCFGSNLWITLDEKLYDGEMLWVNALQSLPANVNTIDHALEFQYTCLDTIANTTYATQFSTTREFIVYQGRNLGTASAKSSFISTTTTDLTSINTSAY
modifications: left off: small tags and cut ends
- binding to the cell surface of intact MATa cells [8]: bound to the cell surface of intact MATa cells only after these cells were treated with α-factor
